Data reported in patent publication US12377080B2, “Allosteric EGFR inhibitors and methods of use thereof” (Dana-Farber Cancer Institute, Inc., priority 2019, dated 2025).

Tests used:
[1] = tested on: EGFR L858R/T790M mutant Ba/F3 Cells; test: Ba/F3 cell proliferation (Cell Titer Glo) in combination with cetuximab; assay type: cell-based, murine; conditions: 72 hours
Description: The EGFR mutant L858R, Del E746_A750, L858R/T790M, Del E746_A750/T790M, L858R/T790MIC797S, and DellT790MIC797S Ba/F3 cells have been previously described (Zhou, W., et al, Nature 462, 2009, 1070-1074). All cell lines were maintained in RPM I 1640 (Cellgro; Mediatech Inc., Herndon, CA) supplemented with 10% FBS, 100 units/mL penicillin, 100 units/mL streptomycin. The EGFR 1941 R mutation was introduced via site directed mutagenesis using the Quick Change Site-Directed Mutagenesis kit (Stratagene; La Jolla, CA) according to the manufacturer's instructions. All constructs were confirmed by DNA sequencing. The constructs were shuttled into the retroviral vector JP1540 using the Cre-recombination system (Agilent Technologies, Santa Clara, CA). Ba/F3 cells were then infected with retrovirus per standard protocols, as described previously (Zhou, et al, Nature 2009). Stable clones were obtained by selection in puromycin (2 μg/ml),
Growth and inhibition of growth was assessed by the Cell Titer Glo assay (Promega, Madison, WI) and was performed according to the manufacturer's instructions. The Cell Titer Glo assay is a luminescence-based method used to determine the number of viable cells based on quantitation of the ATP present, which is directly proportional to the amount of metabolically active cells present. Ba/F3 cells of different EGFR genotypes were exposed to compounds as a single agent or in combination with […] for 72 hours and the number of cells used per experiment was determined empirically as has been previously established (Zhou, et al., Nature 2009). All experimental points were set up in triplicates in 384-well plates and all experiments were repeated at least three times. […] The curves were fitted using a non-linear regression model with a sigmoidal dose response.

EGFR L858R = EGFR L858R (Homo sapiens (Human), UniProt P00533, L858R); test: HTRF-based EGFR biochemical assay (L858R); conditions: 100 μM ATP
Chain of EGFR L858R (P00533 25-1210 L858R): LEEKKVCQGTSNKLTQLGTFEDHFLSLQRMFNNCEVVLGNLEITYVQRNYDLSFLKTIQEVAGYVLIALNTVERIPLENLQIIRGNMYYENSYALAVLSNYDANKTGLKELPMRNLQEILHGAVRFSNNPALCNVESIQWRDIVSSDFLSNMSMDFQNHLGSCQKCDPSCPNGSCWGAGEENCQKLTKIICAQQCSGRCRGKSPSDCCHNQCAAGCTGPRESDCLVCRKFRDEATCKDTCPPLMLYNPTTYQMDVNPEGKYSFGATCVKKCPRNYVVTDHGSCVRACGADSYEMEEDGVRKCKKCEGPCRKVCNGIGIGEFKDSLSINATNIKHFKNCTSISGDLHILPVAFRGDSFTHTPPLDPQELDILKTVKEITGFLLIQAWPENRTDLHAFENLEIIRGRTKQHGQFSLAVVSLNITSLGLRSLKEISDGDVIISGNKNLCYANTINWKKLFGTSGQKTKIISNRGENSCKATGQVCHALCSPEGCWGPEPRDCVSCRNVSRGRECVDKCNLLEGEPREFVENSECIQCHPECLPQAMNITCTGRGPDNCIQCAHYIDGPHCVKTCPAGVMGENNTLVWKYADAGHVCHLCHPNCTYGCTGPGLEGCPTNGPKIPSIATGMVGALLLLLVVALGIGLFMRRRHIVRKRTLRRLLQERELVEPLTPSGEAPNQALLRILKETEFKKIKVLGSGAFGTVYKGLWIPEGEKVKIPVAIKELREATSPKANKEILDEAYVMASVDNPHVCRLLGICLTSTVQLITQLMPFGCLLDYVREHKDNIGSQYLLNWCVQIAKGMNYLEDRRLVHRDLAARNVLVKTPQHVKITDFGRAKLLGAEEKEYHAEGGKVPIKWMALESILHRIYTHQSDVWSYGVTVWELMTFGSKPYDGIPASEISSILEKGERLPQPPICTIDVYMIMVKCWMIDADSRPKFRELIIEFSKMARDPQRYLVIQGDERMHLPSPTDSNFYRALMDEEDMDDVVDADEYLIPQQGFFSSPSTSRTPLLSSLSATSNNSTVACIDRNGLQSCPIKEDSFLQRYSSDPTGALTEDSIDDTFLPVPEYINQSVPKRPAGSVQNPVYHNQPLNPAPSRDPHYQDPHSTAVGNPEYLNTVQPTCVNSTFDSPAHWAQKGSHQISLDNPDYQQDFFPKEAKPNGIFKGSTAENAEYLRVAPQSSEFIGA
Description: (§1) EGFR biochemical activity measurements were carried out using the homogeneous time-resolved fluorescence (HTRF) assay (Cisbio). Inhibitors and DMSO normalizations were first dispensed to empty black low-volume 384-well plates (Corning) with D300 digital liquid dispenser (HP). All reactions were carried out at room temperature and solutions were added to plates with a Multidrop Combi Reagent Dispenser (ThermoFisher). The reaction mixture (10 μL final volume) contained 1 μM tyrosine kinase peptide-biotin substrate and mutant EGFR in a reaction buffer (50 mM HEPES pH 7,0, 5 mM MgCl2,1 mM MnCl2, 0.01% BSA, 2 mM TCEP, 0.1 mM NaVO4). Enzyme concentrations were adjusted to accommodate varying kinase activities (L858R 0.1 nM, L858R!T790M 0,02 nM). Enzyme reaction solution (2× concentrations, 5 μL) was added to 384-well plates containing compounds and incubated for 30 mins. Enzyme reactions were initiated with the addition of […] of ATP to a final concentration of 100 μM and reacted for 20 mins. Reactions were quenched with the addition of 10 μL of phospho-tyrosine antibody-Europium(III) cryptate (1-to-180 volume ratio) and Streptavidin-XL665 (46.7 nM) in EDTA-containing detection buffer, then incubated at room temperature for 1 hour, and read with a PHERAstar plate reader (excitation =337 nm, emission =620 nm and 665 nm).

EGFR L858R/T790M = EGFR L858R/T790M (Homo sapiens (Human), UniProt P00533, L858R/T790M); test: HTRF-based EGFR biochemical assay (L858R/T790M); conditions: 100 μM ATP
Chain of EGFR L858R/T790M (P00533 25-1210 T790M/L858R): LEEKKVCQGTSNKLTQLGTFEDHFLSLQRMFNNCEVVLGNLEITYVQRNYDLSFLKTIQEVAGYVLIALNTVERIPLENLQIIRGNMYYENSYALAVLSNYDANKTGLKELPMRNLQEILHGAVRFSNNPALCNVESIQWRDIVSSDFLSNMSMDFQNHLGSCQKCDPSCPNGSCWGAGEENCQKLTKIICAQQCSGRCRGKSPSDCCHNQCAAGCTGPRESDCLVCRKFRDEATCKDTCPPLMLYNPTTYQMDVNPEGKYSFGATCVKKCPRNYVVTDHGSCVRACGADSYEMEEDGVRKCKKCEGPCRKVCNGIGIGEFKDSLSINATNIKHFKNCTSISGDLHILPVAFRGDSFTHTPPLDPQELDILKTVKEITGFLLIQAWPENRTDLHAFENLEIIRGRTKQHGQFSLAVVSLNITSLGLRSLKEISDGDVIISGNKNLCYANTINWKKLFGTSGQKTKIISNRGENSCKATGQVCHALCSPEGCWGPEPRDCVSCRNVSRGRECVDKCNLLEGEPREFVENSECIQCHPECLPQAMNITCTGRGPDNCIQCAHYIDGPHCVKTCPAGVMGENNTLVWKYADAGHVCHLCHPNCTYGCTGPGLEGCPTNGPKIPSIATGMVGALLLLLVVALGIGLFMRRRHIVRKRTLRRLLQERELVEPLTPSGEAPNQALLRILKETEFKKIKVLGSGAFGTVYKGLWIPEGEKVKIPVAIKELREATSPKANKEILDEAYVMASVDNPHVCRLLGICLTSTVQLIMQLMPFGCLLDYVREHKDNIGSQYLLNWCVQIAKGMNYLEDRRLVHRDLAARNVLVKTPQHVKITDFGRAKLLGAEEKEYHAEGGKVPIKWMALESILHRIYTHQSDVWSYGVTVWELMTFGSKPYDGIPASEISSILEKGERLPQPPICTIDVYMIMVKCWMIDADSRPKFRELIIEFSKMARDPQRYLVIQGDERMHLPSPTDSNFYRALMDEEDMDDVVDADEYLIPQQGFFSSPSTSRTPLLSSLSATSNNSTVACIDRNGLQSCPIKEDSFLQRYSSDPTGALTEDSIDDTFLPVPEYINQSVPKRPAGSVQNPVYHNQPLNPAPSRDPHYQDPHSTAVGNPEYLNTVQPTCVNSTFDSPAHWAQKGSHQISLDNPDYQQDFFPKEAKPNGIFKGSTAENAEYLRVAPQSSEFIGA
Description: as §1

Compound	IC50 [1] [nM]	IC50 (EGFR L858R) [µM]	IC50 (EGFR L858R/T790M) [nM]	IC50 (EGFR L858R; cells printed in μM) [µM]
O=C(Nc1nccs1)C(c1cccc(F)c1)N1Cc2cnc(Br)cc2C1=O (centres unmarked) [Compound 1, 2-(6-bromo-1-oxo-1,3-dihydro-2H-pyrrolo[3,4-c]pyridin-2-yl)-2-(3-fluorophenyl)-N-(thiazol-2-yl)acetamide]	5480			
O=C(Nc1nccs1)C(c1cccc(F)c1)N1Cc2ncc(Br)cc2C1=O (centres unmarked) [Compound 2, 2-(3-bromo-5-oxo-5,7-dihydro-6H-pyrrolo[3,4-b]pyridin-6-yl)-2-(3-fluorophenyl)-N-(thiazol-2-yl)acetamide]	380			
O=C(Nc1ccccn1)C(c1cccc(F)c1)N1Cc2ncc(Br)cc2C1=O (centres unmarked) [Compound 3, 2-(3-bromo-5-oxo-5,7-dihydro-6H-pyrrolo[3,4-b]pyridin-6-yl)-2-(3-fluorophenyl)-N-(pyridin-2-yl)acetamide]	2370			
O=C(Nc1nccs1)C(c1cccc(F)c1)N1Cc2ccc(Br)nc2C1=O (centres unmarked) [Compound 4, 2-(2-bromo-7-oxo-5,7-dihydro-6H-pyrrolo[3,4-b]pyridin-6-yl)-2-(3-fluorophenyl)-N-(thiazol-2-yl)acetamide]	1760			
O=C(Nc1ccccn1)C(c1cccc(F)c1)N1Cc2ccc(Br)nc2C1=O (centres unmarked) [Compound 5, 2-(2-bromo-7-oxo-5,7-dihydro-6H-pyrrolo[3,4-b]pyridin-6-yl)-2-(3-fluorophenyl)-N-(pyridin-2-yl)acetamide]	> 10000			
CN1CCC(c2ccc(-c3cc4c(cn3)CN(C(C(=O)Nc3nccs3)c3cccc(F)c3)C4=O)cc2)CC1 (centres unmarked) [Compound 6, 2-(3-fluorophenyl)-2-(6-(4-(1-methylpiperidin-4-yl)phenyl)-1-oxo-1,3-dihydro-2H-pyrrolo-[3,4-c]pyridin-2-yl)-N-(thiazol-2-yl)acetamide]	130	0.06	6	
CN1CCN(c2ccc(-c3cc4c(cn3)CN(C(C(=O)Nc3nccs3)c3cccc(F)c3)C4=O)cc2)CC1 (centres unmarked) [Compound 7, 2-(3-fluorophenyl)-2-(6-(4-(4-methylpiperazin-1-yl)phenyl)-1-oxo-1,3-dihydro-2H-pyrrolo-[3,4-c]pyridin-2-yl)-N-(thiazol-2-yl)acetamide]	480	0.301	10	
CN1CCN(c2ccc(-c3cnc4c(c3)C(=O)N(C(C(=O)Nc3nccs3)c3cccc(F)c3)C4)cn2)CC1 (centres unmarked) [Compound 8, 2-(3-fluorophenyl)-2-(3-(6-(4-methylpiperazin-1-yl)pyridin-3-yl)-5-oxo-5,7-dihydro-6H-pyrrolo[3,4-b]pyridin-6-yl)-N-(thiazol-2-yl)acetamide]	200	0.02	1	
CN1CCC(c2ccc(-c3cnc4c(c3)C(=O)N(C(C(=O)Nc3nccs3)c3cccc(F)c3)C4)cc2)CC1 (centres unmarked) [Compound 9, 2-(3-fluorophenyl)-2-(3-(4-(1-methylpiperidin-4-yl)phenyl)-5-oxo-5,7-dihydro-6H-pyrrolo-[3,4-b]pyridin-6-yl)-N-(thiazol-2-yl)acetamide]	10	0.005	1	
CN1CCN(c2ccc(-c3cnc4c(c3)C(=O)N(C(C(=O)Nc3nccs3)c3cccc(F)c3)C4)cc2)CC1 (centres unmarked) [Compound 10, 2-(3-fluorophenyl)-2-(3-(4-(4-methylpiperazin-1-yl)phenyl)-5-oxo-5,7-dihydro-6H-pyrrolo-[3,4-b]pyridin-6-yl)-N-(thiazol-2-yl)acetamide]	100	0.046	4	
CN1CCC(c2ccc(-c3cnc4c(c3)C(=O)N(C(C(=O)Nc3nccs3)c3cccc(F)c3)C4)cc2)C1 (centres unmarked) [Compound 11, 2-(3-fluorophenyl)-2-(3-(4-(1-methylpyrrolidin-3-yl)phenyl)-5-oxo-5,7-dihydro-6H-pyrrolo-[3,4-b]pyridin-6-yl)-N-(thiazol-2-yl)acetamide]	50	0.027	3	
CN1CCN(c2ccc(-c3cnc4c(c3)C(=O)N(C(C(=O)Nc3ccccn3)c3cccc(F)c3)C4)cn2)CC1 (centres unmarked) [Compound 12, 2-(3-fluorophenyl)-2-(3-(6-(4-methylpiperazin-1-yl)pyridin-3-yl)-5-oxo-5,7-dihydro-6H-pyrrolo[3,4-b]pyridin-6-yl)-N-(pyridin-2-yl)acetamide]	1910		41	> 1
CN1CCC(c2ccc(-c3ccc4c(n3)C(=O)N(C(C(=O)Nc3nccs3)c3cccc(F)c3)C4)cc2)CC1 (centres unmarked) [Compound 13, 2-(3-fluorophenyl)-2-(2-(4-(1-methylpiperidin-4-yl)phenyl)-7-oxo-5,7-dihydro-6H-pyrrolo-[3,4-b]pyridin-6-yl)-N-(thiazol-2-yl)acetamide]	20	0.007	1	
CN1CCN(c2ccc(-c3ccc4c(n3)C(=O)N(C(C(=O)Nc3nccs3)c3cccc(F)c3)C4)cc2)CC1 (centres unmarked) [Compound 14, 2-(3-fluorophenyl)-2-(2-(4-(4-methylpiperazin-1-yl)phenyl)-7-oxo-5,7-dihydro-6H-pyrrolo-[3,4-b]pyridin-6-yl)-N-(thiazol-2-yl)acetamide]	120	0.032	4	
CN1CCN(c2ccc(-c3ccc4c(n3)C(=O)N(C(C(=O)Nc3nccs3)c3cccc(F)c3)C4)cn2)CC1 (centres unmarked) [Compound 15, 2-(3-fluorophenyl)-2-(2-(6-(4-methylpiperazin-1-yl)pyridin-3-yl)-7-oxo-5,7-dihydro-6H-pyrrolo[3,4-b]pyridin-6-yl)-N-(thiazol-2-yl)acetamide]	330	0.083	6	
CN1CCC(c2ccc(-c3ccc4c(n3)C(=O)N(C(C(=O)Nc3nccs3)c3cccc(F)c3)C4)cc2)C1 (centres unmarked) [Compound 16, 2-(3-fluorophenyl)-2-(2-(4-(1-methylpyrrolidin-3-yl)phenyl)-7-oxo-5,7-dihydro-6H-pyrrolo-[3,4-b]pyridin-6-yl)-N-(thiazol-2-yl)acetamide]	40	0.006	1	
CN1CCC(c2ccc(-c3ccc4c(n3)C(=O)N(C(C(=O)Nc3nccs3)c3cccc(F)c3)C4)cn2)CC1 (centres unmarked) [Compound 17, 2-(3-fluorophenyl)-2-(2-(6-(1-methylpiperidin-4-yl)pyridin-3-yl)-7-oxo-5,7-dihydro-6H-pyrrolo[3,4-b]pyridin-6-yl)-N-(thiazol-2-yl)acetamide]	140	0.036	7	
CN1CCC(c2ccc(-c3cnc4c(c3)C(=O)N(C(C(=O)Nc3nccs3)c3cccc(F)c3)C4)cn2)CC1 (centres unmarked) [Compound 18, 2-(3-fluorophenyl)-2-(3-(6-(1-methylpiperidin-4-yl)pyridin-3-yl)-5-oxo-5,7-dihydro-6H-pyrrolo[3,4-b]pyridin-6-yl)-N-(thiazol-2-yl)acetamide]	220	0.126	9	
CN1CCC(c2ccc(-c3ccc4c(n3)C(=O)N(C(C(=O)Nc3nccs3)c3cccc(F)c3)C4)c(F)c2)CC1 (centres unmarked) [Compound 19, 2-(2-(2-fluoro-4-(1-methyl-piperidin-4-yl)phenyl)-7-oxo-5,7-dihydro-6H-pyrrolo[3,4-b]pyridin-6-yl)-2-(3-fluoro-phenyl)-N-(thiazol-2-yl)-acetamide]	30	0.004	0.7	
